Laboratory results: US8513268B2, “1H-quinazoline-2,4-diones processes for their production, pharmaceutical compositions, and treatment for epilepsy” (Novartis AG, priority 2005, dated 2013)
Counter-ions that a name gives are not always drawn.

What was measured:
AMPA-Receptor = assay: [3H] CNQX binding test (AMPA-receptor binding); conditions: brain membranes, 5 nM [3H]-CNQX, 4° C., 40 min
Procedure: CNQX binding test (Honoré et al. Biochem. Pharmacol. 1989, 38: 3207-3212). This test is performed as follows: • Brain membranes: The animals are decapitated, the brain removed and homogenized in 10 volumes of ice-cold 10% sucrose with a glass/Teflon homogenizer at positions 5 for 30 sec. The membranes are centrifuged at 1000×g for 10 min, and the supernatant centrifuged at 20,000×g for 15 min. The resulting pellet is resuspended in 10 volumes of cold water with a tissue homogenizer (Brinkman Polytron) at position 5 for 15 sec and the suspension centrifuged at 8000×g for 10 min. The supernatant including the buffy layer is centrifuged at 40,000×g for 20 min, the pellet resuspended in 5 volumes of water and the suspension frozen (20-30 min in dry ice/MeOH) and thawed (water-bath at 37° C.) twice. The suspension is centrifuged at 40,000×g for 20 min, the pellet resuspended in 50 mM HEPES/KOH, pH 7.5, and centrifuged at 40,000×g for 10 min. […]
Two hundred μL of the scintillation fluid Microscint 20 (Packard) are added and the radioactivity is counted in a Packard Topcount scintillation counter at an efficiency of 40-45%. […]

rGluR3 AMPA receptor = target: T1, rGluR3 AMPA receptor (Rattus norvegicus, UniProt P19492); assay: Functional test for AMPA-receptor activity, two electrode voltage clamp in Xenopus laevis oocytes; type: cell-based; conditions: oocytes expressing rat GluR3-(flop) AMPA receptor; read-out: IC50-value (antagonist)
T1 construct: expressed in transfected cells; host or cells: Xenopus laevis oocytes injected with cRNA
Procedure: For the determination of functional agonism or antagonism at the AMPA-receptor, experiments can be performed on Xenopus oocytes as previously described in detail (Urwyler et al., Mol. Pharmacol. 2001, 60, 963-971). Briefly, two electrode voltage clamp recordings are performed from Xenopus laevis oocytes expressing GluR3 AMPA receptors. Plasmids for the rat GluR3-(flop) (Hollmann et al., Science 1991, 252, 851-853) are linearized and transcribed into capped cRNA using an in vitro RNA synthesis kit (Ambion, Texas) with T7 Polymerase. Stock solutions are kept in 70% EtOH. Before use, cRNA is precipitated and resuspended in DEPC-treated water. Oocytes are injected with RNA coding the rat GluR3-(flop) AMPA receptor. For recordings, oocytes are placed in a perfusion chamber with continuous gravity flow of frog Ringer's solution. For recordings from oocytes expressing rGluR3-(flop) receptors frog, Ringer's solution containing Mg^2+ (81 mM NaCl; 2.5 mM KCl; 1 mM CaCl2; 1 mM MgCl2, 2.5 mM NaHCO3, 5 mM HEPES, pH 7.4) is used.
Test compounds are washed in with gravity.

T1 sequence (P19492 23-888): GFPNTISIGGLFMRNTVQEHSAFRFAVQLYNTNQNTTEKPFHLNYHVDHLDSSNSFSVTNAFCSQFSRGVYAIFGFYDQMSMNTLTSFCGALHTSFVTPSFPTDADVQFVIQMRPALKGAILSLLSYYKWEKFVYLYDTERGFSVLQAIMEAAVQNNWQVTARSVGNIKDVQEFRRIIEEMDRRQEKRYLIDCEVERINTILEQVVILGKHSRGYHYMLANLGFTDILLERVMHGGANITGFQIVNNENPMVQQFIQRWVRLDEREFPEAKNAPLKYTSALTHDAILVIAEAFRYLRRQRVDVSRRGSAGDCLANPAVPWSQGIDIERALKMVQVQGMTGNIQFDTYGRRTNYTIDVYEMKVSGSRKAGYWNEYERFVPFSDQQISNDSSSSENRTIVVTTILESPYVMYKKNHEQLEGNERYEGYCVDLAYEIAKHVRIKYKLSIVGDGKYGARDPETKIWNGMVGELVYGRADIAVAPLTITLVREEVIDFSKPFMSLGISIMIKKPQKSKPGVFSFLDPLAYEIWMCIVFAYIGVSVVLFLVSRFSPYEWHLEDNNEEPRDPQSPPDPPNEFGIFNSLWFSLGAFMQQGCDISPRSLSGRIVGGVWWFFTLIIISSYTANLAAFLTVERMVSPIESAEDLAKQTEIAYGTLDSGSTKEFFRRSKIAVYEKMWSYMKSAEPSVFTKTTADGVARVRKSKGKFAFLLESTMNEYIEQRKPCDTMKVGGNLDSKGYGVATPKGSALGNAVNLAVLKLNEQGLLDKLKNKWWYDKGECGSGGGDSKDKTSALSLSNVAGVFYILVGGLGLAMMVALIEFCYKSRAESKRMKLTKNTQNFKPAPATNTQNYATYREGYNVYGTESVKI

SMILES	melting point	IC50 (AMPA-Receptor)	IC50 (rGluR3 AMPA receptor)
CS(=O)(=O)Nn1c(=O)[nH]c2cc(C(F)(F)F)c(-c3cccc(CN)c3)cc2c1=O (as salt: hydrochloride) [Example 38, N-[6-(3-Aminomethyl-phenyl)-2,4-dioxo-7-trifluoromethyl-1,4-dihydro-2H-quinazolin-3-yl]methanesulfonamide]	282 to 284 °C	–	–
CC(O)c1cc2c(=O)n(NS(C)(=O)=O)c(=O)[nH]c2cc1C(F)(F)F (racemic) [Example 2, N-[6-(1-Hydroxy-ethyl)-2,4-dioxo-7-trifluoromethyl-1,4-dihydro-2H-quinazolin-3-yl]-methanesulfonamide]	263 to 268 °C	–	–
CC(=O)c1cc2c(=O)n(NS(C)(=O)=O)c(=O)[nH]c2cc1C(F)(F)F [Example 1, N-(6-Acetyl-2,4-dioxo-7-trifluoromethyl-1,4-dihydro-2H-quinazolin-3-yl)-methanesulfonamide]	258 to 265 °C	–	–
COC(C)c1cc2c(=O)n(NS(C)(=O)=O)c(=O)[nH]c2cc1C(F)(F)F (stereo not drawn) [Example 3, N-[6-(1-Methoxy-ethyl)-2,4-dioxo-7-trifluoromethyl-1,4-dihydro-2H-quinazolin-3-yl]-methanesulfonamide]	233 to 236 °C	–	–
CCOC(C)c1cc2c(=O)n(NS(C)(=O)=O)c(=O)[nH]c2cc1C(F)(F)F (stereo not drawn) [Example 4, N-[6-(1-Ethoxy-ethyl)-2,4-dioxo-7-trifluoromethyl-1,4-dihydro-2H-quinazolin-3-yl]-methanesulfonamide]	105 to 112 °C	< 1000 nM	< 3000 nM
CC(C)OC(C)c1cc2c(=O)n(NS(C)(=O)=O)c(=O)[nH]c2cc1C(F)(F)F (stereo not drawn) [Example 5, N-[6-(1-Isopropoxy-ethyl)-2,4-dioxo-7-trifluoromethyl-1,4-dihydro-2H-quinazolin-3-yl]-methanesulfonamide]	110 to 115 °C	–	–
CCC(=O)c1cc2c(=O)n(NS(C)(=O)=O)c(=O)[nH]c2cc1C(F)(F)F [Example 6, N-(2,4-Dioxo-6-propionyl-7-trifluoromethyl-1,4-dihydro-2H-quinazolin-3-yl)-methanesulfonamide]	234 to 236 °C	–	–
CCC(O)c1cc2c(=O)n(NS(C)(=O)=O)c(=O)[nH]c2cc1C(F)(F)F (stereo not drawn) [Example 7, N-[6-(1-Hydroxy-propyl)-2,4-dioxo-7-trifluoromethyl-1,4-dihydro-2H-quinazolin-3-yl]-methanesulfonamide]	219 to 222 °C	–	–
CCCC(=O)c1cc2c(=O)n(NS(C)(=O)=O)c(=O)[nH]c2cc1C(F)(F)F [Example 10, N-(6-Butyryl-2,4-dioxo-7-trifluoromethyl-1,4-dihydro-2H-quinazolin-3-yl)-methanesulfonamide]	236 to 239 °C	–	–
CCCC(O)c1cc2c(=O)n(NS(C)(=O)=O)c(=O)[nH]c2cc1C(F)(F)F (stereo not drawn) [Example 11, N-[6-(1-Hydroxy-butyl)-2,4-dioxo-7-trifluoromethyl-1,4-dihydro-2H-quinazolin-3-yl]-methanesulfonamide]	223 to 226 °C	–	–
CS(=O)(=O)Nn1c(=O)[nH]c2cc(C(F)(F)F)c(C3CCCO3)cc2c1=O (stereo not drawn) [Example 12, N-[2,4-Dioxo-6-(tetrahydro-furan-2-yl)-7-trifluoromethyl-1,4-dihydro-2H-quinazolin-3-yl]-methanesulfonamide]	254 to 257 °C	–	–
CCCOC(C)c1cc2c(=O)n(NS(C)(=O)=O)c(=O)[nH]c2cc1C(F)(F)F (stereo not drawn) [Example 14, N-[2,4-Dioxo-6-(1-propoxy-ethyl)-7-trifluoromethyl-1,4-dihydro-2H-quinazolin-3-yl]-methanesulfonamide]	95 to 105 °C	–	–
CCCCOC(C)c1cc2c(=O)n(NS(C)(=O)=O)c(=O)[nH]c2cc1C(F)(F)F (stereo not drawn) [Example 15, N-[6-(1-Butoxy-ethyl)-2,4-dioxo-7-trifluoromethyl-1,4-dihydro-2H-quinazolin-3-yl]-methanesulfonamide]	84 to 90 °C	–	–
CC(OC1CCCC1)c1cc2c(=O)n(NS(C)(=O)=O)c(=O)[nH]c2cc1C(F)(F)F (stereo not drawn) [Example 17, N-[6-(1-Cyclopentyloxy-ethyl)-2,4-dioxo-7-trifluoromethyl-1,4-dihydro-2H-quinazolin-3-yl]-methanesulfonamide]	188 to 192 °C	–	–
CS(=O)(=O)Nn1c(=O)[nH]c2cc(C(F)(F)F)c(C(=O)C(F)(F)F)cc2c1=O [Example 20, N-[2,4-Dioxo-6-(2,2,2,-trifluoro-acetyl)-7-trifluoromethyl-1,4-dihydro-2H-quinazolin-3-yl]-methanesulfonamide]	262 to 265 °C	–	–
CC(C)C(=O)c1cc2c(=O)n(NS(C)(=O)=O)c(=O)[nH]c2cc1C(F)(F)F [Example 21, N-(6-Isobutyryl-2,4-dioxo-7-trifluoromethyl-1,4-dihydro-2H-quinazolin-3-yl)-methanesulfonamide]	228 to 231 °C	–	–
CC(C)C(O)c1cc2c(=O)n(NS(C)(=O)=O)c(=O)[nH]c2cc1C(F)(F)F (stereo not drawn) [Example 22, N-[6-(1-Hydroxy-2-methyl-propyl)-2,4-dioxo-7-trifluoromethyl-1,4-dihydro-2H-quinazolin-3-yl]methanesulfonamide]	232 to 235 °C	–	–
COC(c1cc2c(=O)n(NS(C)(=O)=O)c(=O)[nH]c2cc1C(F)(F)F)C(C)C (stereo not drawn) [Example 23, N-[6-(1-Methoxy-2-methyl-propyl)-2,4-dioxo-7-trifluoromethyl-1,4-dihydro-2H-quinazolin-3-yl]-methanesulfonamide]	227 to 229 °C	–	–
CS(=O)(=O)Nn1c(=O)[nH]c2cc(C(F)(F)F)c(C3CCCCO3)cc2c1=O (stereo not drawn) [Example 24, N-[2,4-Dioxo-6-(tetrahydro-pyran-2-yl)-7-trifluoromethyl-1,4-dihydro-2H-quinazolin-3-yl]-methanesulfonamide]	275 to 280 °C	–	–
CS(=O)(=O)Nn1c(=O)[nH]c2cc(C(F)(F)F)c(CCCO)cc2c1=O [Example 25, N-[6-(3-Hydroxy-propyl)-2,4-dioxo-7-trifluoromethyl-1,4-dihydro-2H-quinazolin-3-yl]-methanesulfonamide]	243 to 247 °C	–	–
CS(=O)(=O)Nn1c(=O)[nH]c2cc(C(F)(F)F)c(-c3cccc(C#N)c3)cc2c1=O [Example 34, N-[6-(3-Cyano-phenyl)-2,4-dioxo-7-trifluoromethyl-1,4-dihydro-2H-quinazolin-3-yl]-methanesulfonamide]	291 to 292 °C	–	–
CS(=O)(=O)Nn1c(=O)[nH]c2cc(C(F)(F)F)c(-c3ccc(C#N)cc3)cc2c1=O [Example 35, N-[6-(4-Cyano-phenyl)-2,4-dioxo-7-trifluoromethyl-1,4-dihydro-2H-quinazolin-3-yl]-methanesulfonamide]	145 to 147 °C	–	–
CC(=O)c1cccc(-c2cc3c(=O)n(NS(C)(=O)=O)c(=O)[nH]c3cc2C(F)(F)F)c1 [Example 36, N-[6-(3-Acetyl-phenyl)-2,4-dioxo-7-trifluoromethyl-1,4-dihydro-2H-quinazolin-3-yl]-methanesulfonamide]	220 to 222 °C	–	–
CC(O)c1cccc(-c2cc3c(=O)n(NS(C)(=O)=O)c(=O)[nH]c3cc2C(F)(F)F)c1 (stereo not drawn) [Example 37, N-{6-[3-(1-Hydroxy-ethyl)-phenyl]-2,4-dioxo-7-trifluoromethyl-1,4-dihydro-2H-quinazolin-3-yl}-methanesulfonamide]	165 to 169 °C	–	–
CN(C)Cc1cccc(-c2cc3c(=O)n(NS(C)(=O)=O)c(=O)[nH]c3cc2C(F)(F)F)c1 [Example 39, N-[6-(3-Dimethylaminomethyl-phenyl)-2,4-dioxo-7-trifluoromethyl-1,4-dihydro-2H-quinazolin-3-yl]-methanesulfonamide]	346 to 348 °C	–	–
